Laboratory results taken from US6261826A, “Antibiotic TKR2648 and process for producing the same” (Takara Shuzo Co., Ltd., priority 1996, dated 2001).
≈ marks a conversion by molar mass, not a printed value. Entries after “also recorded” stand apart in the source; their conditions may differ.

Columns and labels:
[1] = test system: Aspergillus fumigatus TIMM1776; assay: Minimal inhibitory concentration, liquid medium dilution method; type: cell-based
Description: (§1) The antifungal spectra of the above TKR2648 against various microorganisms were determined. Using the liquid medium dilution method, the concentration causing a substantially complete inhibition of fungal growth was determined as minimal inhibitory concentration (μg/ml). In the table, YNBG stands for a medium comprising 0.67% of yeast nitrogen base (manufactured by Difco) and 1.0% of glucose, and BHI stands for a medium comprising 0.5% of brain-heart infusion bouillon (manufactured by Nihon Pharmaceutical).

[2] = test system: Candida albicans TIMM0136; assay: as above; type: cell-based
Description: as §1

Candida kefyr TIMM0301 = assay: as above; type: cell-based
Description: as §1

[3] = test system: Cryptococcus neoformans TIMM0354; assay: as above; type: cell-based
Description: as §1

EL-4 lymphoma cells [4] = assay: Cytotoxicity to EL-4 lymphoma cells, alamarblue-method; type: cell-based
Description: (§2) Effect of the above TKR2648 on tumor cells was examined by measuring inhibitory activity of the metastatic ability of tumor cells, which were inoculated into animals after incubation with TKR2648 for several hours. EL-4 lymphoma or B16 melanoma cells were cultured in RPMI 1640 medium containing 10% of fetal calf serum, and various concentrations of TKR2648 were added to the culture of tumor cells. After overnight culture, cytotoxicity of TKR2648 to the cells was determined by alamarblue-method (Biosource International), and the cells treated with TKR2648 were recovered and injected to C57BL/6 (female) mice via tail vein. Ten days after the injection of EL-4, the mice were sacrified and their livers were obtained and weighed to determine metastasizing tumor cells as increase of weight. Fourteen days after the injection of B16 cells, the mice were scarified and their lungs were obtained and counted metastasizing melanoma colonies. […] This means that TKR2648 may be useful as an anticancer agent by inhibiting metastasis properties of tumor cells without affecting of proliferative properties of tumor cells.

B16 melanoma cells [5] = assay: Cytotoxicity to B16 melanoma cells, alamarblue-method; type: cell-based
Description: as §2

EL-4 lymphoma cells [6] = assay: Inhibition of metastasis of treated EL-4 cells injected into mice (liver weight); type: in vivo, C57BL/6 (female) mice; conditions: for Inhibition of metastasis / Increase of liver weight mean ± SD: ten days after injection; for Increase of liver weight mean ± SD: * p<0.001
Description: as §2

B16 melanoma cells [7] = assay: Inhibition of metastasis of treated B16 cells injected into mice (lung colonies); type: in vivo, C57BL/6 (female) mice; conditions: for Inhibition of metastasis / Colony number of melanoma mean ± SD: fourteen days after injection; for Colony number of melanoma mean ± SD: lungs
Description: as §2

ICR mice = assay: Toxicity, intraperitoneal administration to mice; type: in vivo; conditions: 50 mg/kg
Solubility = type: physicochemical
[8] = in words, at concentrations inhibiting metastasis
[9] = EL4 cells treated at 0.156 μg/ml
[10] = EL4 cells treated at 0.313 μg/ml
[11] = EL4 cells treated at 0.625 μg/ml
[12] = in words, at the concentrations showing little cytotoxicity
[13] = B16 cells treated at 0.156 μg/ml
[14] = B16 cells treated at 0.625 μg/ml

Structure (SMILES): CCCCC(=O)OC1CC(OC)=CC(=O)O1 (centres unmarked) [TKR2648]
- MIC ([1]; Aspergillus fumigatus, TIMM1776, BHI medium): 6.25 mg/L (≈ 27.4 µM)
- Antifungal activity ([1]; in words): active
- MIC ([2]; Candida albicans, TIMM0136, YNBG medium): 100 mg/L (≈ 438 µM)
- Antifungal activity ([2]; in words): active
- MIC (Candida kefyr TIMM0301; Kluyveromyces marxianus, TIMM0301, YNBG medium): 50 mg/L (≈ 219 µM)
- Antifungal activity (Candida kefyr TIMM0301; in words): active
- MIC ([3]; Cryptococcus neoformans, TIMM0354, YNBG medium): 3.13 mg/L (≈ 13.7 µM)
- Antifungal activity ([3]; in words): active
- cytotoxicity at 0.156 µg/mL (EL-4 lymphoma cells [4]; Mus musculus, EL4, 0.156 μg/ml, overnight culture): 4.5%
- cytotoxicity at 0.313 µg/mL (EL-4 lymphoma cells [4]; Mus musculus, EL4, 0.313 μg/ml, overnight culture): 15.7%
- cytotoxicity at 0.625 µg/mL (EL-4 lymphoma cells [4]; Mus musculus, EL4, 0.625 μg/ml, overnight culture): 35.1%
- Cytotoxicity (EL-4 lymphoma cells [4]; [8]): little cytotoxicity
- cytotoxicity at 0.156 µg/mL (B16 melanoma cells [5]; Mus musculus, B16, 0.156 μg/ml, overnight culture): 4.5%
- cytotoxicity at 0.625 µg/mL (B16 melanoma cells [5]; Mus musculus, B16, 0.625 μg/ml, overnight culture): 14.1%
- cytotoxicity at 2.5 µg/mL (B16 melanoma cells [5]; Mus musculus, B16, 2.5 μg/ml, overnight culture): 51.3%
- Cytotoxicity (B16 melanoma cells [5]; [8]): little cytotoxicity
- Inhibition of metastasis (EL-4 lymphoma cells [6]; [9]): 47.4%
- Increase of liver weight mean ± SD (EL-4 lymphoma cells [6]; [9]): 0.630 ± 0.107 g
- Inhibition of metastasis (EL-4 lymphoma cells [6]; [10]): 67.4%
- Increase of liver weight mean ± SD (EL-4 lymphoma cells [6]; [10]): 0.391 ± 0.148 g
- Inhibition of metastasis (EL-4 lymphoma cells [6]; [11]): 89.3%
- Increase of liver weight mean ± SD (EL-4 lymphoma cells [6]; [11]): 0.128 ± 0.043 g
- Metastasis of EL-4 tumor cells to normal tissues (EL-4 lymphoma cells [6]; [12]): inhibited metastasis
- Inhibition of metastasis (B16 melanoma cells [7]; [13]): 9.6%
- Colony number of melanoma mean ± SD (B16 melanoma cells [7]; [13]): 58.3 ± 16.3
- Inhibition of metastasis (B16 melanoma cells [7]; [14]): 29.7%
- Colony number of melanoma mean ± SD (B16 melanoma cells [7]; [14]): 45.3 ± 3.8
- Inhibition of metastasis (B16 melanoma cells [7]; B16 cells treated at 2.5 μg/ml): 96.4%
- Colony number of melanoma mean ± SD (B16 melanoma cells [7]; B16 cells treated at 2.5 μg/ml, * p<0.001): 2.3 ± 2.3
- Metastasis of B16 tumor cells to normal tissues (B16 melanoma cells [7]; [12]): inhibited metastasis
- Toxic signs (ICR mice): no toxic signs
- Solubility (Solubility; in chloroform): Soluble
- Solubility (Solubility; in hexane): practically insoluble; also recorded: sparingly soluble
- Solubility (Solubility; in methanol): Soluble
- Solubility (Solubility; in water): practically insoluble; also recorded: sparingly soluble
